Assay results as given in article PMC4985813, “Binding site elucidation and structure guided design of macrocyclic IL-17A antagonists” (Scientific Reports, 2016).
Where “and” joins values, the source holds several entries; their conditions need not be identical. Equal entries are not always repeated. Entries after “also recorded” stand apart in the source; their conditions may differ. Where two headings read alike, the source gives them in different places.

Experiments:
[1] = target: T1, IL-17F homodimer (Homo sapiens, UniProt Q96PD4); assay: SPR selectivity binding, immobilized IL-17F; details: for binding to IL-17F (SPR): concentrations up to 13.3 μM
T1 construct: purchased R&D Systems, Minneapolis, MN
T1 sequence (Q96PD4 31-163): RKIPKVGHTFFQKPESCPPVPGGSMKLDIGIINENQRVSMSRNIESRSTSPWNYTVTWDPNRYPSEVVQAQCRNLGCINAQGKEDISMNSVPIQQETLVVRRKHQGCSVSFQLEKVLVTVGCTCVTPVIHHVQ
Experimental: (§1) The IL-17 SPR binding assay was run on a Biacore 3000 SPR instrument (GE Healthcare). Biotinylated Bap-tagged human IL-17A[23], was captured on a Biacore Streptavidin chip to achieve a protein density of 2500–3500 RUs on the surface. The SPR running buffer was 10 mM HEPES, pH 7.4, 150 mM NaCl, 0.01% P20 with 3% DMSO. Compound samples were injected at a flow rate of 50 μL/min for 180 s association and followed by running buffer for at least 600 s to detect dissociation. Compound concentrations were varied across a 2–3 fold dilution series. Each concentration was tested at least in duplicate. When compounds were tested in the presence of HAP, the running buffer contained 50 nM of HAP and all samples were prepared in the running buffer. Multiple blank injections were run before and after each compound series for references. The data were processed and analyzed with Scrubber 2.0 (BioLogical Software) and Biaeval software (GE Healthcare) to calculate the binding constants along with on- and off-rates.
(§2) Biotinylated BAP-tagged IL-17RA ECD[17] and chemically biotinylated IL-17F (R&D Systems, Minneapolis, MN) were separately immobilized on Biacore Streptavidin chips to permit selectivity testing of compounds. The binding experiments were carried out as described above.

[2] = target: T2, IL-17RA (Homo sapiens, UniProt Q96F46); assay: SPR selectivity binding, immobilized IL-17RA ECD
T2 construct: Biotinylated BAP-tagged IL-17RA ECD[17]
Experimental: as §1, §2

[3] = system: IL-17A-stimulated human keratinocytes; assay: Primary human keratinocytes cell assay, IL-8 production stimulated by IL-17A and TNF-α; format: cell-based; details: for IC50: Homo sapiens, Keratinocyte
Experimental: (§3) Primary human keratinocytes were cultured in Epilife medium with EDGS (Life Technology, Cascade Biologics) following product instructions. 5 days after establishing the culture from frozen vials, cells were plated at 10,000/well (80 μL) in culture media in 384-well plates. 4 h after plating, 10 μL of 10× compound stocks were added. Final DMSO concentration was 1%. Immediately after compound addition, 10 μL of a mixture of recombinant human IL-17A (R&D System, Minneapolis, MN) (5 ng/mL final) and TNF-α (Sigma-Aldrich, St Louis, MO) (10 ng/mL final), or TNF-α alone (10 ng/mL) were added to the cells. Cell assay plates were incubated for 48 h at 37 °C in a tissue culture incubator. Culture supernatants were harvested for analysis of IL-8 production using kit K211ANB-2 (Meso Scale Discovery, Rockville, MD).

[4] = target: T3, IL-17A/IL-17RA interaction (Homo sapiens, UniProt Q16552); assay: FRET assay of IL-17A/IL-17RA interaction; format: biochemical
T3 construct: purchased R&D Systems (IL-17RA-Fc only)
Experimental: Maximal FRET was observed when IL-17A was bound to IL-17RA and diminished FRET was observed when IL-17A was separated from IL-17RA. […] Compounds were tested using a half-log dilution series of 11 concentrations. The IL-17A was incubated with the Europium-Streptavidin to 1.5X final assay concentration for 1 h at room temperature. Compounds were prepared at 50X final concentration in 100% DMSO and 300 nL were added to a 384-well white assay plate (Greiner). 10 μL of the Europium labeled IL-17A was added to the compounds and incubated at room temperature for 1 h. […] The plates were covered and incubated at room temperature for 3 h. The FRET signal of the IL-17A/IL-17RA interaction was measured using an EnVision Multilabel plate reader (PerkinElmer). […] A four-parameter logistic nonlinear regression model using the percent inhibition at each concentration was used to calculate an IC50 for each compound.

[5] = target: human IL-17A (Homo sapiens, UniProt Q16552); assay: SPR binding assay, immobilized IL-17A
Experimental: as §1, with “When compounds were tested in the presence of HAP, the running buffer contained 50 nM of HAP and all samples were prepared in the running buffer.” left out

[6] = system: keratinocytes stimulated by TNF-α alone; assay: Primary human keratinocytes cell assay, baseline IL-8 production stimulated by TNF-α alone; format: cell-based; details: Keratinocyte, TNF-α 10 ng/mL alone
Experimental: as §3

[7] = target: T4, full-length recombinant IL-17A (Homo sapiens, UniProt Q16552); assay: Covalent labeling of IL-17A with sulfonyl fluoride probe (pull-down, protein mass analysis, peptide mapping); format: biochemical
T4 construct: made in house
Experimental: Human recombinant IL-17A expressed in E. coli (5 μM) was incubated with and without compound 4 (50 μM) for 20 h at 37 °C in Dulbecco’s phosphate-buffered saline solution. To analyze cytokine homodimer, 10 μL of each sample was subjected to LC-MS using an Acquity class H UPLC (Waters) interfaced to a Xevo G2–S Q-Tof mass spectrometer (Waters). Chromatography was performed on a 2.1 × 100 mm Acquity BEH 300 Å C4 column (1.7 μm silica) (Waters) at 40 °C using the following gradient: 5% B/1 min, 5–85% B/10 min at 0.4 mL/min. Solvents: A, 0.05% formic acid in water; B, 0.05% formic acid in acetonitrile. […]
100 μL of each reaction sample was treated with three volumes of acetone at −20 °C for 2 h, after which the mixture was centrifuged at 14,000 × g for 10 min. […] Each digest was next treated with 4.5 mM DTT for 15 min at 37 °C, and 8 μL of each digest was analyzed on an Agilent Model 1100 HPLC system interfaced with a LTQ Orbitrap XL mass spectrometer (Thermo). […]
0.5 μM full length IL-17A (R&D Systems) was pre-incubated with DMSO or 50 μM a control compound in PBS at room temperature for 30 min, after which 5 μM sulfonyl fluoride probe compound 4 was added to the protein mixture (final sample volume 50 μl) and incubated for 1 h. […] Eluates were separated on a 12% NuPAGE Bis-Tris gel, transferred to a PVDF membrane, and then analyzed by immunoblot (anti-IL17A antibody from R&D Systems).

T3 sequence (Q16552 24-155): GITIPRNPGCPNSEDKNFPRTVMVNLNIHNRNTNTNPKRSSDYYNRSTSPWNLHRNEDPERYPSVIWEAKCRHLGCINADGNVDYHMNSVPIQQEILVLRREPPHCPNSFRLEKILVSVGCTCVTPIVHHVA
T2 sequence (Q96F46 33-320 limits assumed): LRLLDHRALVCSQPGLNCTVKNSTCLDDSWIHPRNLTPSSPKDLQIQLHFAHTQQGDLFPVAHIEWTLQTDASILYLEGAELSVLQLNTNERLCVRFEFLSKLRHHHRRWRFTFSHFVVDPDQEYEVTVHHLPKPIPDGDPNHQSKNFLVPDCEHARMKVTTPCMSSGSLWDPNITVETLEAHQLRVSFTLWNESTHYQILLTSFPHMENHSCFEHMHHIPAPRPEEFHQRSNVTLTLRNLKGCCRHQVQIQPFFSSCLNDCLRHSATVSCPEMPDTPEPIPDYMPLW
Sequence of human IL-17A (Q16552 24-155): as the sequence (Q16552 24-155) above
T4 sequence (Q16552 24-155): as above

Structure (SMILES): CN(C)C(=O)CC1(CC(=O)NCCc2ccc(NC(=O)[C@H](Cc3ccccc3F)NC(=O)c3ccnn3C)cc2)CCCC1 [Compound 1]
- binding to IL-17F homodimer (SPR) ([1]; concentrations up to 40 μM): no measurable binding; also recorded: did not show any measurable binding
- binding to IL-17RA (SPR) ([2]; concentrations up to 40 μM): no measurable binding; also recorded: did not show measurable binding
- modulation of IL-8 production in IL-17A-stimulated human keratinocytes ([3]; in the presence of TNF-α): insufficient to modulate

Structure (SMILES): CNC(=O)[C@H]1Cc2ccc(cc2)NC(=O)[C@@H](NC(=O)c2ccnn2C)Cc2cc(ccc2Cl)Oc2ccc(cc2)C2(CCCC2)CC(=O)N1 [Compound 2]
- IC50 [4]: < 35 nM and 34 nM
- Kd ([5]; read-out: IL-17A SPR KD): 199 nM
- Kd ([5]; read-out: SPR KD): < 200 nM
- IC50 [6]: > 30000 nM
- binding to IL-17F (SPR) [1]: did not show measurable binding
- binding to IL-17RA (SPR) ([2]; concentrations up to 13.3 μM): did not show measurable binding
- IC50 ([3]; IL-17A 5 ng/mL and TNF-α 10 ng/mL, 48 h, read-out: Keratinocyte IC50 (IL-8)): 537 nM
- IC50 ([3]; read-out: IC50, IL-17A-stimulated production of IL-8 in keratinocytes): < 540 nM

Structure (SMILES): CNC(=O)[C@H]1Cc2ccc(cc2)NC(=O)C(NC(=O)c2ccnn2C)Cc2cc(ccc2Cl)-c2cccc(c2)CCC(=O)N1 (some centres unmarked) [Compound 3]
- IC50 [6]: > 30000 nM
- binding to IL-17F (SPR) [1]: no measurable binding; also recorded: did not show measurable binding
- binding to IL-17RA (SPR) ([2]; concentrations up to 13.3 μM): no measurable binding; also recorded: did not show measurable binding

Structure (SMILES): C#CCNC(=O)[C@@H](Cc1ccc(NC(=O)[C@H](Cc2ccccc2F)NC(=O)c2ccnn2C)cc1)NC(=O)CC1(CC(=O)Nc2cccc(S(=O)(=O)F)c2)CCCC1 [Compound 4]
- IC50 [4]: 200 nM
- covalent labeling of IL-17A ([7]; in the absence of HAP): covalently labeled
- principal site of modification of IL-17A ([7]; peptide mapping): Tyr85
